The target of this assay is unphosphorylated-BTK kinase domain (UP-BTK), GST-tagged human BTK (389-659aa) (Homo sapiens (Human), UniProt Q06187). Kind of assay: BTK kinase Lanthascreen binding assay. Conditions: Lanthascreen tracer competition, 60 minutes incubation, pIC50 = negative log of the IC50 in molar; for IC50: read-out: BTK_I_binding pIC50 (converted). Put shortly:
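Measures how well compounds compete with a fluorescence-labelled tracer for binding to BTK in its unphosphorylated state. IC50 values were fitted and expressed as pIC50 (negative logarithm of the molar IC50).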
In general terms: TR-FRET usually uses a lanthanide donor and a delayed reading to cut background.

We go through 27 compounds from US10800792B2, “Inhibitors of Bruton's tyrosine kinase and method of their use” (JANSSEN PHARMACEUTICA NV, priority 2015, dated 2020).

Molecules are shown by their SMILES. A value given as a limit tells only on which side of the number the result lay.

Chain of unphosphorylated-BTK kinase domain (UP-BTK), GST-tagged human BTK (389-659aa) (Q06187 389-659): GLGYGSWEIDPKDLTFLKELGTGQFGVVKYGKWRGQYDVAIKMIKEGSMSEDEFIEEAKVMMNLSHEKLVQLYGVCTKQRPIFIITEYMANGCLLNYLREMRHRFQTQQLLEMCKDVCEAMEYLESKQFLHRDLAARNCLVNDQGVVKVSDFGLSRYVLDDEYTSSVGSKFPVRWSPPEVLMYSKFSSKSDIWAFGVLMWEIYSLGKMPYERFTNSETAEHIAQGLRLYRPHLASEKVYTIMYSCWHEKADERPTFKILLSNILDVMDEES

On to `C=CC(=O)N1CCC[C@@H](NC(=O)c2sc3nccc4c3c2NC(=O)N4c2ccnc(-c3cccnc3)c2)C1` [Example 701, (R)-5-([2,3′-Bipyridin]-4-yl)-N-(1-acryloylpiperidin-3-yl)-4-oxo-4,5-dihydro-3H-1-thia-3,5,8-triazaacenaphthylene-2-carboxamide], for which the “BTK_I_binding pIC50” value is listed as 7.2. Still for that read-out and setting: the value for `CN(C)C/C=C/C(=O)N1CC[C@@H](NC(=O)c2sc3nccc4c3c2NC(=O)N4c2ccc(Oc3ccccc3)c(Cl)c2)C1` [Example 703, (R,E)-5-(3-Chloro-4-phenoxyphenyl)-N-(1-(4-(dimethylamino)but-2-enoyl)pyrrolidin-3-yl)-4-oxo-4,5-dihydro-3H-1-thia-3,5,8-triazaacenaphthylene-2-carboxamide] was 7.8; that for `C=CC(=O)N1CCC[C@@H](NC(=O)c2sc3nccc4c3c2NC(=O)N4c2ccc(OC3CCC3)nc2C)C1` [Example 704, (R)—N-(1-Acryloylpiperidin-3-yl)-5-(6-cyclobutoxy-2-methylpyridin-3-yl)-4-oxo-4,5-dihydro-3H-1-thia-3,5,8-triazaacenaphthylene-2-carboxamide] was 6.6; that for `C=CC(=O)N1CC[C@@H](NC(=O)c2sc3nccc4c3c2NC(=O)N4c2cccc(C(C)C)c2)C1` [Example 705, (R)—N-(1-Acryloylpyrrolidin-3-yl)-5-(3-isopropylphenyl)-4-oxo-4,5-dihydro-3H-1-thia-3,5,8-triazaacenaphthylene-2-carboxamide] was 6.7.

In the case of `O=C(N[C@@H]1CCCNC1)c1sc2nccc3c2c1NC(=O)N3c1cccc(-c2cccc(F)c2F)c1` [Example 706, (R)-5-(2′,3′-Difluoro-[1,1′-biphenyl]-3-yl)-4-oxo-N-(piperidin-3-yl)-4,5-dihydro-3H-1-thia-3,5,8-triazaacenaphthylene-2-carboxamide], the “BTK_I_binding pIC50” value came out at 7.7. Still for that read-out and setting: the value for `C=CC(=O)N1CCC[C@@H](NC(=O)c2sc3nccc4c3c2NC(=O)N4c2cccc(C3CCOCC3)c2)C1` [Example 708, (R)—N-(1-Acryloylpiperidin-3-yl)-4-oxo-5-(3-(tetrahydro-2H-pyran-4-yl)phenyl)-4,5-dihydro-3H-1-thia-3,5,8-triazaacenaphthylene-2-carboxamide] was 6.5.

On to `C=CC(=O)N1CCC[C@@H](NC(=O)c2sc3nccc4c3c2NC(=O)N4c2ccnc(-c3ccccn3)c2)C1` [Example 709, (R)-5-([2,2′-Bipyridin]-4-yl)-N-(1-acryloylpiperidin-3-yl)-4-oxo-4,5-dihydro-3H-1-thia-3,5,8-triazaacenaphthylene-2-carboxamide], for which the “BTK_I_binding pIC50” value turned out to be 6.7. Same read-out and setting: the same measure for `CN1CCC[C@@H](NC(=O)c2sc3nccc4c3c2NC(=O)N4c2cccc(-c3cccc(F)c3F)c2)C1` [Example 710, (R)-5-(2′,3′-Difluoro-[1,1′-biphenyl]-3-yl)-N-(1-methylpiperidin-3-yl)-4-oxo-4,5-dihydro-3H-1-thia-3,5,8-triazaacenaphthylene-2-carboxamide]: 7.4; for `Cc1nc(Oc2ccccc2)ccc1N1C(=O)Nc2c(C(=O)N[C@@H]3CCCNC3)sc3nccc1c23` [Example 711, (R)-5-(2-methyl-6-phenoxypyridin-3-yl)-4-oxo-N-(piperidin-3-yl)-4,5-dihydro-3H-1-thia-3,5,8-triazaacenaphthylene-2-carboxamide]: 6.6.

As for `CNCC(=O)N1CCC[C@@H](NC(=O)c2sc3nccc4c3c2NC(=O)N4c2ccnc(-c3ccccc3)c2)C1` [Example 714, (R)—N-(1-(Methylglycyl)piperidin-3-yl)-4-oxo-5-(2-phenylpyridin-4-yl)-4,5-dihydro-3H-1-thia-3,5,8-triazaacenaphthylene-2-carboxamide], the “BTK_I_binding pIC50” value came to 6.5. On the same count and under the same terms, the value for `C=CC(=O)N1C[C@@H](O)[C@@H](NC(=O)c2sc3nccc4c3c2NC(=O)N4c2ccnc(-c3ccccc3)c2)C1` [Example 718, N-((3S,4R)-1-Acryloyl-4-hydroxypyrrolidin-3-yl)-4-oxo-5-(2-phenylpyridin-4-yl)-4,5-dihydro-3H-1-thia-3,5,8-triazaacenaphthylene-2-carboxamide] was 6.3. Consider `O=C(N[C@@H]1CCCNC1)c1sc2nccc3c2c1NC(=O)N3c1ncc(Oc2ccccc2)cn1` [Example 719, (R)-4-Oxo-5-(5-phenoxypyrimidin-2-yl)-N-(piperidin-3-yl)-4,5-dihydro-3H-1-thia-3,5,8-triazaacenaphthylene-2-carboxamide], for which the IC50 was 501 nM. On to `O=C(N[C@@H]1CCCNC1)c1sc2nccc3c2c1NC(=O)N3c1ccnc(C2CCCC2)c1` [Example 720, (R)-5-(2-Cyclopentylpyridin-4-yl)-4-oxo-N-(piperidin-3-yl)-4,5-dihydro-3H-1-thia-3,5,8-triazaacenaphthylene-2-carboxamide], for which the “BTK_I_binding pIC50” value amounted to 6.2. The same measure, in the same setting: the value for `CC(C)Cc1cccc(N2C(=O)Nc3c(C(=O)N[C@@H]4CCCNC4)sc4nccc2c34)c1` [Example 721, (R)-5-(3-Isobutylphenyl)-4-oxo-N-(piperidin-3-yl)-4,5-dihydro-3H-1-thia-3,5,8-triazaacenaphthylene-2-carboxamide] was 6.2.

For `O=C(N[C@@H]1CCCNC1)c1sc2nccc3c2c1NC(=O)N3c1cc(-c2ccccc2)ncn1` [Example 723, (R)-4-Oxo-5-(6-phenylpyrimidin-4-yl)-N-(piperidin-3-yl)-4,5-dihydro-3H-1-thia-3,5,8-triazaacenaphthylene-2-carboxamide], the IC50 was 794 nM. For `Cc1ccc(-c2ccccc2)cc1N1C(=O)Nc2c(C(=O)N[C@@H]3CCCNC3)sc3nccc1c23` [Example 725, (R)-5-(4-Methyl-[1,1′-biphenyl]-3-yl)-4-oxo-N-(piperidin-3-yl)-4,5-dihydro-3H-1-thia-3,5,8-triazaacenaphthylene-2-carboxamide], the “BTK_I_binding pIC50” value is given as 6.1. Take `CC(C)c1cc(N2C(=O)Nc3c(C(=O)N[C@@H]4CCCNC4)sc4nccc2c34)ccn1` [Example 727, (R)-5-(2-Isopropylpyridin-4-yl)-4-oxo-N-(piperidin-3-yl)-4,5-dihydro-3H-1-thia-3,5,8-triazaacenaphthylene-2-carboxamide]: the “BTK_I_binding pIC50” value is on record as less than 6. On the same count and under the same terms, the same measure for `Cc1cnc(-c2ccccc2)cc1N1C(=O)Nc2c(C(=O)N[C@@H]3CCCNC3)sc3nccc1c23` [Example 729, (R)-5-(5-Methyl-2-phenylpyridin-4-yl)-4-oxo-N-(piperidin-3-yl)-4,5-dihydro-3H-1-thia-3,5,8-triazaacenaphthylene-2-carboxamide]: less than 6.

On to `Cc1cc(OCCOC(C)C)ccc1N1C(=O)Nc2c(C(=O)N[C@@H]3CCCNC3)sc3nccc1c23` [Example 730, (R)-5-(4-(2-Isopropoxyethoxy)-2-methylphenyl)-4-oxo-N-(piperidin-3-yl)-4,5-dihydro-3H-1-thia-3,5,8-triazaacenaphthylene-2-carboxamide], for which the IC50 is greater than 1000 nM. Take `O=C(N[C@@H]1CCCNC1)c1sc2nccc3c2c1NC(=O)N3c1ccnc(C2CCCCC2)c1` [Example 731, (R)-5-(2-Cyclohexylpyridin-4-yl)-4-oxo-N-(piperidin-3-yl)-4,5-dihydro-3H-1-thia-3,5,8-triazaacenaphthylene-2-carboxamide]: the “BTK_I_binding pIC50” value was less than 6. Still for that read-out and setting: the same measure for `C=CC(=O)N1CCC[C@@H](NC(=O)c2sc3nccc4c3c2NC(=O)N4c2ccc(OC(C)C)nc2C)C1` [Example 732, (R)—N-(1-Acryloylpiperidin-3-yl)-5-(6-isopropoxy-2-methylpyridin-3-yl)-4-oxo-4,5-dihydro-3H-1-thia-3,5,8-triazaacenaphthylene-2-carboxamide]: less than 6. Consider `Cc1c(N2C(=O)Nc3c(C(=O)N[C@@H]4CCCNC4)sc4nccc2c34)ccnc1-c1ccccc1` [Example 733, (R)-5-(3-Methyl-2-phenylpyridin-4-yl)-4-oxo-N-(piperidin-3-yl)-4,5-dihydro-3H-1-thia-3,5,8-triazaacenaphthylene-2-carboxamide], for which the “BTK_I_binding pIC50” value was less than 6. Still for that read-out and setting: the same measure for `C=CC(=O)N1CCC[C@@H](NC(=O)c2sc3nccc4c3c2NC(=O)N4c2cc(C)nc(-c3ccccc3)c2)C1` [Example 734, (R)—N-(1-Acryloylpiperidin-3-yl)-5-(2-methyl-6-phenylpyridin-4-yl)-4-oxo-4,5-dihydro-3H-1-thia-3,5,8-triazaacenaphthylene-2-carboxamide]: less than 6. For `Cc1cc(N2C(=O)Nc3c(C(=O)N[C@@H]4CCCNC4)sc4nccc2c34)cc(-c2ccccc2)n1` [Example 735, (R)-5-(2-Methyl-6-phenylpyridin-4-yl)-4-oxo-N-(piperidin-3-yl)-4,5-dihydro-3H-1-thia-3,5,8-triazaacenaphthylene-2-carboxamide], the IC50 is greater than 1000 nM. On to `O=C(N[C@@H]1CCCNC1)c1sc2nccc3c2c1NC(=O)N3c1cccc(C2CCOCC2)c1` [Example 738, (R)-4-Oxo-N-(piperidin-3-yl)-5-(3-(tetrahydro-2H-pyran-4-yl)phenyl)-4,5-dihydro-3H-1-thia-3,5,8-triazaacenaphthylene-2-carboxamide], for which the “BTK_I_binding pIC50” value is on record as less than 6. On to `CC(C)(C)OC(=O)N1CCC[C@@H](NC(=O)c2sc3nccc4c3c2NC(=O)N4c2cccc(C3CCOCC3)c2)C1` [Example 739, (R)-tert-Butyl 3-(4-oxo-5-(3-(tetrahydro-2H-pyran-4-yl)phenyl)-4,5-dihydro-3H-1-thia-3,5,8-triazaacenaphthylene-2-carboxamido)piperidine-1-carboxylate], for which the “BTK_I_binding pIC50” value was less than 6. The same measure, in the same setting: the value for `O=C(N[C@@H]1CCCNC1)c1sc2nccc3c2c1NC(=O)N3c1cnnc(-c2ccccc2)c1` [Example 740, (R)-4-Oxo-5-(6-phenylpyridazin-4-yl)-N-(piperidin-3-yl)-4,5-dihydro-3H-1-thia-3,5,8-triazaacenaphthylene-2-carboxamide] was less than 6.
